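The compound was tested at five concentrations on cells cultured in 96-well plates, with a 48-hour exposure period. At the TGI there is no net growth.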
Columns and labels:
Experiment in all cases: NCI anticancer screen, dose series, 48 h
[1] = system: A549 NSCLC
[2] = system: CCRF-CEM leukemia
[3] = system: HL-60(TB) leukemia
[4] = system: HOP-62 NSCLC
[5] = system: HT29 colon
[6] = system: IGROV1 ovarian
[7] = system: LXFL 529 NSCLC
[8] = system: NCI-H226 lung
[9] = system: NCI-H23 lung
[10] = system: OVCAR-5 ovarian
[11] = system: OVCAR-8 ovarian
[12] = system: SK-MEL-28 melanoma
[13] = system: SK-MEL-5 melanoma
[14] = system: SNB-75 CNS
[15] = system: SR leukemia
[16] = system: UACC-257 melanoma
[17] = system: CAKI-1 renal
[18] = system: EKVX NSCLC
[19] = system: HCT-15 colon
[20] = system: LOX IMVI melanoma

| SMILES | TGI [1] | TGI [2] | TGI [3] | TGI [4] | TGI [5] | TGI [6] | TGI [7] | TGI [8] | TGI [9] | TGI [10] | TGI [11] | TGI [12] | TGI [13] | TGI [14] | TGI [15] | TGI [16] | TGI [17] | TGI [18] | TGI [19] | TGI [20] |
| --- | --- | --- | --- | --- | --- | --- | --- | --- | --- | --- | --- | --- | --- | --- | --- | --- | --- | --- | --- | --- |
| CCOC(=O)/C(C#N)=c1/s/c(=C(\O)N/N=C/c2ccc(OC)cc2)c(=N)n1-c1ccccc1 | > 100 µM | > 100 µM | > 100 µM | > 100 µM | > 100 µM | > 100 µM | > 100 µM | > 100 µM | > 100 µM | > 100 µM | > 100 µM | > 100 µM | > 100 µM | 27.2 µM | > 100 µM | > 100 µM | – | – | – | – |
| CCCCCCCCCCCCOC(=N)N1CCOCC1 | 30.4 µM | 9.44 µM | 3.26 µM | 33.3 µM | 4.11 µM | 27.7 µM | 15.1 µM | 37.2 µM | 27.4 µM | 28.5 µM | 33.5 µM | 25.3 µM | 23.4 µM | 29.9 µM | 4.53 µM | 23.9 µM | 17.3 µM | 26.4 µM | 16.3 µM | 34.4 µM |
| CS(=O)(=O)Sc1ccc(Cl)cc1 | 17.5 µM | 8.89 µM | 17.5 µM | 5.29 µM | 22.6 µM | 8 µM | 23.3 µM | 20.6 µM | 27.7 µM | 31.5 µM | 21.8 µM | 23.9 µM | 20.2 µM | 12.6 µM | 15.7 µM | 20.6 µM | 24.4 µM | 18.3 µM | 22.2 µM | 11.5 µM |
| Nc1ccc(Oc2ccc(C3(c4ccc(Oc5ccc(N)c(O)c5)cc4)C4CC5CC(C4)CC3C5)cc2)cc1O | 3.14 µM | 6.47 µM | 5.3 µM | 4.73 µM | 4.4 µM | – | – | 3.62 µM | – | 5.75 µM | – | – | 3.02 µM | – | 3.11 µM | 5.91 µM | 5.03 µM | 6.16 µM | – | – |
| O=c1cc(O)c1=O | > 100 µM | > 100 µM | > 100 µM | > 100 µM | > 100 µM | > 100 µM | – | > 100 µM | > 100 µM | > 100 µM | > 100 µM | > 100 µM | > 100 µM | > 100 µM | > 100 µM | > 100 µM | > 100 µM | > 100 µM | > 100 µM | > 100 µM |

Reference: PubChem BioAssay (NCI)
